Results as given in patent US9314458B2, “Topical use of ingenol-3-angelate or a salt thereof to treat skin cancer” (LEO Laboratories Limited, priority 2000, dated 2016).

Legend:
Type in all cases: cell-based
[1] = system: EBV in Burkitt's lymphoma cell lines (Mutul, BL74) and an LCL; experiment: EBV activation (VCA western blot) in Burkitt's lymphoma cell lines and LCL
Protocol: To ensure that equal amounts of each sample were analyzed, the gels were stained with Coomassie blue and the loadings were adjusted to make them equal. […] Next the PEP003 and PEP004 were assayed on two Burkitt's lymphoma cell lines and an LCL. This time only concentrations of 10^−5 and 10^−7 were used.

PKCβ = target: T1, PKCβ (Homo sapiens, UniProt P05771); experiment: EGFP-PKC translocation in HeLa cells (PKCβ); details: one hour
T1 construct: host or cells: HeLa cells
Protocol: Five EGFP-PKC isoforms (Clontech) were available for this experiment, enabling the screening of the three predominant PKC families (i.e. classical, novel and atypical PKCs). The members of the various PKC families are α, β, and γ (classical), θ (novel) and ζ (atypical).
HeLa cells were plated out in a 24-well plate containing coverslips and transfected with PKC isoforms fused to EGFP, using a commercially available effectine-transfection kit (QIAGEN, Pty. Ltd.). Cells were exposed to the transfection reagents for 16-24 hr. Subsequently, transfected cells were treated for one hour with TPA (100 ng/mL), bryostatin-1 (5 pg/mL), PEP003 (2.25 μg/mL; 5 μM) or PEP005 ([…]) 1.5 μM). Following treatment, cells were fixed on coverslips and mounted on glass slides. The slides were subsequently examined visually by fluorescence microscopy, photographed, and over 150 cells were counted/treatment/PKC isoform. Counted cells were classified according to the localisation of the PKC-EGFP fluorescence as either cytoplasmic or plasma membrane using ImagePro™ 4.1 (FIG. 5). […] The number of these cells was also counted. Results are presented as an average and standard deviation of percentages of cells (Table 1).

[2] = system: Peripheral blood mononuclear cells (granulocytes, monocytes, lymphocytes); experiment: Respiratory burst, DCFH-DA H2O2 flow cytometry; details: bisindolylmaleimide 10 ng/mL or 1 ng/mL
Protocol: Experiments were also carried out using 2′,7′-dichlorofluorescein diacetate (DCFH-DA) to measure the production of H2O2. (J P Robinson, Oxidative burst methods, in Handbook of Flow Cytometry Methods, Wiley-Liss Inc, pp 147-149, 1993). H2O2 oxidizes the non-fluorescent probe (DCFH-DA) to a fluorescent probe that can then be detected by a flow cytometer. Peripheral blood mononuclear cells (PBMC) were extracted from a donor blood sample by lysis of heparinized blood and used in a suspension of 1×10^6/mL of phosphate buffer, pH 7.3. The cells were then incubated with DCFH-DA (1 μL/mL of 20 mM stock) for 15 minutes to allow it to be taken up and trapped by hydrolysis with cellular esterases. The cells were then stimulated by test compounds for 15 min at 37° C. Controls included in the experiment were unloaded control (cells with no DCFH-DA) and loaded control (cells with DCFH-DA, but no stimulation). These were used to monitor the non-specific oxidation of unstimulated cells. The cells were then analyzed on the flow cytometer (excitation at 488 nm, emission at 525±20 nm), gating each sample for individual cell populations—granulocytes, monocytes and lymphocytes (Table 3).

T1 sequence (P05771 whole entry, species assumed): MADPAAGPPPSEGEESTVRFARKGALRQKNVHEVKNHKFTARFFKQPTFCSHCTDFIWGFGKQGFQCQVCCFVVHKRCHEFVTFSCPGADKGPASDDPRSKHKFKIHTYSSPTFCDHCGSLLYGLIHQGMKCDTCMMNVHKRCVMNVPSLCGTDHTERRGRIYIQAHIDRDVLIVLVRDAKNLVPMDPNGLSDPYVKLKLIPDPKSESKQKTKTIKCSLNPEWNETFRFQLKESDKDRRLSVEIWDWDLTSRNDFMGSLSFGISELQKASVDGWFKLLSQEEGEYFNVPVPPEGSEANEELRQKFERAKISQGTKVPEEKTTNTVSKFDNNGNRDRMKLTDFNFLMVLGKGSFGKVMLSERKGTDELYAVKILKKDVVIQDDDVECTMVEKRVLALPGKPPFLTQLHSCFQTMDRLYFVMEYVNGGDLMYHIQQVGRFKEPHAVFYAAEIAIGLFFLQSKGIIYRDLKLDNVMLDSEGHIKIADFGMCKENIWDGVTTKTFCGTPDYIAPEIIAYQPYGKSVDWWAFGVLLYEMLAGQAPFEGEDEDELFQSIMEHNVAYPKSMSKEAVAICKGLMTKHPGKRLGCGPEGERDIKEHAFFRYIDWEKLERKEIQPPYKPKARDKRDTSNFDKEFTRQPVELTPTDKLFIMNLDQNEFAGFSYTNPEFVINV

What does the source list for `CCCCCCCCCCCCCC(=O)O[C@@H]1[C@@H](C)[C@@]2(O)[C@@H](C=C(CO)C[C@]3(O)C(=O)C(C)=C[C@@H]23)C2C(C)(C)[C@@]21OC(C)=O` (single isomer, unassigned) [TPA]?
induction of VCA in Mutul cells [1]: did not; number of PKCβ transfected cells with Golgi-like fluorescence (PKCβ): increase in Golgi-like fluorescence; translocation of PKCβ from cytoplasm to plasma membrane (PKCβ; TPA 100 ng/mL, bryostatin-1 5 pg/mL, PEP003 2.25 μg/mL (5 μM), PEP005 670 μg/mL (1.5 μM)): translocated from the cytoplasm to the plasma membrane; respiratory burst with bisindolylmaleimide added [2]: blocked
